# Publication PMC9570478, “Purification, Biochemical and Kinetic Characterization of a Novel Alkaline sn-1,3-Regioselective Triacylglycerol Lipase from Penicillium crustosum Thom Strain P22 Isolated from Moroccan Olive Mill Wastewater” (International Journal of Molecular Sciences, 2022)
# Legend:
# [1] = target: T1, Lipolase (Thermomyces lanuginosus, UniProt O59952); experiment: pH-Stat titration; type: biochemical; conditions: commercial preparation; TC8 emulsion
# T1 construct: gene LIP; commercial enzyme preparation (Novozymes)
# T1 sequence (O59952 23-291): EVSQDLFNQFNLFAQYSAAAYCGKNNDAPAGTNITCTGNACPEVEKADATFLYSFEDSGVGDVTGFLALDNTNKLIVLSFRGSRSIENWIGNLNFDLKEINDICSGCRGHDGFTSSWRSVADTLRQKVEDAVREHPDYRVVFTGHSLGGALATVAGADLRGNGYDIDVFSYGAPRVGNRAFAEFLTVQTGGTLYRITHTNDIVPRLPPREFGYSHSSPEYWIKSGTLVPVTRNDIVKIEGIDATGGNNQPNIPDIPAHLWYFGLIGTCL
# [2] = target: T2, Palatase 20000 L (Rhizomucor miehei, UniProt P19515); experiment: pH-Stat titration; type: biochemical; conditions: commercial preparation; TC8 emulsion
# T2 construct: commercial enzyme preparation (Novozymes)
# T2 sequence (P19515 95-363): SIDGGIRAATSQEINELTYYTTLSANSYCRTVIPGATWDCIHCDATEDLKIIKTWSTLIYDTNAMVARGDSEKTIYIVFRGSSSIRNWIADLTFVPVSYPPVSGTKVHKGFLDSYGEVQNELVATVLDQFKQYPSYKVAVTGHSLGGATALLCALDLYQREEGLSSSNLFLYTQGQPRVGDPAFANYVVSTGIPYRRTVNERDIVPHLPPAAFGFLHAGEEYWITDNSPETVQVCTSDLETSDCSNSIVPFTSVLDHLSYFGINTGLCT
structure (smiles),measurement,setting,value
CCCCCCCC(=O)OCC(COC(=O)CCCCCCC)OC(=O)CCCCCCC [TC8],pH-Stat titration,[1],almost the same substrate specificity profile as PCrL under the same experimental conditions
same,pH-Stat titration,[2],almost the same substrate specificity profile as PCrL under the same experimental conditions
